The source of these data is patent US20230272029A1, “CO-AGONISTS AT GLP-1 AND GIP RECEPTORS SUITABLE FOR ORAL DELIVERY” (Novo Nordisk A/S, priority 2020, published 2023).

Marks after values point to notes of the source that are not given here. Starred links: 1 amine or outer side, 2 acyl side, 3 side chain; linkers in the order of their positions; H or OH if unused. Non-standard residues stand in square brackets, D forms with d. Residues, ends and D or L forms follow the SMILES beside them. Groups on a side chain read outwards from the residue. *: point of attachment. C18 diacid = O=C(O)CCCCCCCCCCCCCCCCC(=O)*; γGlu = O=C(O)[C@H](CCC(=O)[*:2])N[*:1]; εLys = N[C@@H](CCCCN[*:1])C(=O)[*:2]; Aib = CC(C)(N)C(=O)O

The nature of this data set: Pharmacokinetic study in dogs after oral dosing of tablets with SNAC. Particulars: dog, in vivo, po. Format: in vivo, Beagle dogs. How it is done:
The purpose of this example is to determine the half-life and plasma exposure in vivo of the compounds of the present invention after p.o. administration to beagle dogs, i.e. the terminal half-life and concentration of test substance that reaches circulation with time. This is done in a pharmacokinetic (PK) study, where these parameters of the compound in question are determined. By terminal half-life is generally meant the period of time it takes to halve a certain plasma concentration, measured after the initial distribution phase.
The amount of SNAC in the tablet composition was 100-300 mg, the amount of magnesium stearate in the tablet composition was 7.7 mg, and the target amount of each test substance in the tablet composition was 3-4 mg.
Male beagle dogs, 1-7 years of age and weighing 9-17 kg during the study period, were included in the study. The dogs were dosed in a fasting state. The dogs were group housed in pens (12 hours light: 12 hours dark), and fed individually and restrictedly once daily with Royal Canin Medium Adult dog food (Royal Canin Products, China Branch, or Brogaarden A/S, Denmark). The dogs were used for repeated PK studies with a suitable wash-out period between successive dosing. An appropriate acclimatization period was given prior to initiation of the first PK study. All handling, dosing, and blood sampling of the animals were performed by trained and skilled staff. Before the studies, the dogs were fasted overnight and from 0 to 4 hours after dosing. The dogs were restricted to water 1 hour before dosing until 4 hours after dosing, but otherwise had ad libitum access to water during the whole period.
The compositions were administered by a single oral dosing to the dogs in groups of 6-8 dogs. […] The mouth was then closed, and 10 mL of tap water was given by syringe or gavage to facilitate swallowing of the tablet.
For each blood sample time point, approximately 0.8 mL of whole blood was collected in a 1.5 mL EDTA-coated tube, which was gently turned to mix the sample with EDTA. Blood samples were collected in EDTA buffer (8 mM) and then centrifuged at 4° C. and 2000g for 10 minutes. Plasma was pipetted into Micronic tubes on dry ice, and kept at −20° C. or lower until analysis. Blood samples were taken as appropriate, for example from a venflon in the cephalic vein in the front leg for the first 2 hours and then with syringe from the jugular vein for the rest of the time points. The first few drops were allowed to drain from the venflon to avoid heparin saline from the venflon in the sample.
All blood samples were collected into test tubes containing EDTA for stabilisation and kept on ice until centrifugation. Plasma was separated from whole blood by centrifugation and the plasma was stored at −20° C. or lower until analysis.
The plasma was analysed for test substance using LC-MS (Liquid Chromatography-Mass Spectrometry) as known to the person skilled in the art. […] RP-HPLC separation was achieved using a linear gradient of 1:1 acetonitrile/methanol in 1% aqueous formic acid using either: a Phenomenex Onyx Monolithic C18 column (50×2.0 mm) and a flow rate of 0.8 mL/min at 30° C.; or an Agilent Poroshell 120 SB-C18 column (50×2.1 mm, 2.7 μm) at a flow rate of 0.4 mL/min at 60° C. The mass spectrometer was operated in either positive ionization SIM mode or positive ionization PRM mode.
For each individual animal, a plasma concentration-time profile was analysed by a non-compartmental model in Pharsight Phoenix WinNonLin ver. 6.4 software or other relevant software for PK analysis, and the resulting terminal half-life (t1/2), maximum plasma concentration per dose (Cmax/D), time for maximum plasma concentration (tmax), and area under the curve to infinity per dose (AUC/D) were determined. Summary statistics of pharmacokinetic results were presented as median (for tmax), harmonic mean ([…]), or arithmetic mean (Cmax, AUC).

As for `CC[C@H](C)[C@H](NC(=O)[C@H](Cc1ccccc1)NC(=O)[C@H](CCC(=O)O)NC(=O)[C@H](CCC(=O)O)NC(=O)[C@H](C)NC(=O)[C@H](C)NC(=O)[C@H](CCC(N)=O)NC(=O)[C@H](CCCCNC(=O)[C@@H](N)CCCCNC(=O)[C@@H](N)CCCCNC(=O)CC[C@H](NC(=O)CCCCCCCCCCCCCCCCC(=O)O)C(=O)O)NC(=O)[C@H](CCC(=O)O)NC(=O)[C@H](CC(C)C)NC(=O)[C@H](CC(C)C)NC(=O)[C@@H](NC(=O)[C@H](CO)NC(=O)[C@H](Cc1ccc(O)cc1)NC(=O)[C@H](CC(=O)O)NC(=O)[C@H](CO)NC(=O)[C@@H](NC(=O)[C@H](Cc1ccccc1)NC(=O)[C@@H](NC(=O)CNC(=O)[C@H](CCC(=O)O)NC(=O)C(C)(C)NC(=O)[C@@H](N)Cc1ccc(O)cc1)[C@@H](C)O)[C@@H](C)O)[C@@H](C)CC)C(=O)N[C@@H](CC(N)=O)C(=O)N[C@@H](Cc1c[nH]c2ccccc12)C(=O)N[C@@H](CC(C)C)C(=O)N[C@@H](CC(C)C)C(=O)N[C@@H](C)C(=O)NCC(=O)NCC(=O)N1CCC[C@H]1C(=O)N[C@@H](CO)C(=O)N[C@@H](CO)C(=O)NCC(=O)N[C@@H](C)C(=O)N1CCC[C@H]1C(=O)N1CCC[C@H]1C(=O)N1CCC[C@H]1C(=O)N[C@@H](CO)C(=O)O` [Compound No. 25] (H-Y[Aib]EGTFTSDYSILLEK([εLys-εLys-γGlu-C18 diacid])QAAEEFINWLLAGGPSSGAPPPS-OH), the Cmax/Dose came to 0.30 kg/L.

Regarding `CC[C@H](C)[C@H](NC(=O)[C@H](Cc1ccccc1)NC(=O)[C@H](CCC(=O)O)NC(=O)[C@H](Cc1c[nH]cn1)NC(=O)[C@H](C)NC(=O)[C@H](C)NC(=O)[C@H](CCC(N)=O)NC(=O)[C@H](CCCCNC(=O)[C@@H](N)CCCCNC(=O)[C@@H](N)CCCCNC(=O)CC[C@H](NC(=O)CCCCCCCCCCCCCCCCC(=O)O)C(=O)O)NC(=O)[C@H](CCC(=O)O)NC(=O)[C@H](CC(C)C)NC(=O)[C@H](CC(C)C)NC(=O)[C@@H](NC(=O)[C@H](CO)NC(=O)[C@H](Cc1ccc(O)cc1)NC(=O)[C@H](CC(=O)O)NC(=O)[C@H](CO)NC(=O)[C@@H](NC(=O)[C@H](Cc1ccccc1)NC(=O)[C@@H](NC(=O)CNC(=O)[C@H](CCC(=O)O)NC(=O)C(C)(C)NC(=O)[C@@H](N)Cc1ccc(O)cc1)[C@@H](C)O)[C@@H](C)O)[C@@H](C)CC)C(=O)N[C@@H](CC(N)=O)C(=O)N[C@@H](Cc1c[nH]c2ccccc12)C(=O)N[C@@H](CC(C)C)C(=O)N[C@@H](CC(C)C)C(=O)N[C@@H](C)C(=O)NCC(=O)NCC(=O)N1CCC[C@H]1C(=O)N[C@@H](CO)C(=O)N[C@@H](CO)C(=O)NCC(=O)N[C@@H](C)C(=O)N1CCC[C@H]1C(=O)N1CCC[C@H]1C(=O)N1CCC[C@H]1C(=O)N[C@@H](CO)C(=O)O` [Compound No. 26] (H-Y[Aib]EGTFTSDYSILLEK([εLys-εLys-γGlu-C18 diacid])QAAHEFINWLLAGGPSSGAPPPS-OH), the Cmax/Dose is reported as 0.49* kg/L.
